Experiments:
Assay in all cases: relative viability (nuclei count vs DMSO), 5 days (fraction); higher = more cells survive
[1] = compound: NS(=O)(=O)OC[C@@H]1C[C@@H](n2ccc3c(N[C@H]4CCc5ccccc54)ncnc32)C[C@@H]1O [MLN4924] + CC(=O)Nc1cccc(-n2c(=O)n(C3CC3)c(=O)c3c(Nc4ccc(I)cc4F)n(C)c(=O)c(C)c32)c1 [Trametinib] (partner 0.02 µM)
Summary of the method: (§1)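 Medians of duplicate plates are given as relative viability. That measure is the nuclei count in treated wells divided by the count in vehicle wells. Counts were taken on 4× images of lung cancer cell lines in 1536-well plates, 5 days after pin-tool dosing the day after seeding with one drug alone or a fixed anchor-drug dose plus five library-drug doses (not always all listed) in √10 steps.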

[2] = compound: C1CC(C1)(C(=O)O)C(=O)O.[NH2-].[NH2-].[Pt+2] [Carboplatin] + CC1(C)CCC(c2ccc(Cl)cc2)=C(CN2CCN(c3ccc(C(=O)NS(=O)(=O)c4ccc(N[C@H](CCN5CCOCC5)CSc5ccccc5)c(S(=O)(=O)C(F)(F)F)c4)cc3)CC2)C1 [Navitoclax] (partner 0.5 µM)
Summary of the method: as §1

[3] = compound: CC[C@H](C)N1C=C(C2=C(C=C(C=C21)C3=CN=C(C=C3)N4CCNCC4)C(=O)NCC5=C(C=C(NC5=O)C)C)C [GSK126] + COc1cccc2cc(-c3nc([C@H]4CC[C@H](C(=O)O)CC4)n4ncnc(N)c34)[nH]c12 [OSI-027] (partner 0.5 µM)
Summary of the method: as §1

[4] = compound: NS(=O)(=O)OC[C@@H]1C[C@@H](n2ccc3c(N[C@H]4CCc5ccccc54)ncnc32)C[C@@H]1O [MLN4924] + C[C@]1(O)C[C@@H](c2nc(-c3ccc4ccc(-c5ccccc5)nc4c3)c3c(N)nccn32)C1 [Linsitinib] (partner 1 µM)
Summary of the method: as §1

| Cell Line | relative viability ([1]; first compound 0.04 µM) | relative viability ([1]; first compound 0.1265 µM) | relative viability ([1]; first compound 0.4 µM) | relative viability ([1]; first compound 1.265 µM) | relative viability ([1]; first compound 4 µM) | relative viability ([2]; first compound 0.08 µM) | relative viability ([2]; first compound 0.253 µM) | relative viability ([2]; first compound 0.8 µM) | relative viability ([2]; first compound 2.53 µM) | relative viability ([2]; first compound 8 µM) | relative viability ([3]; first compound 0.08 µM) | relative viability ([3]; first compound 0.253 µM) | relative viability ([3]; first compound 0.8 µM) | relative viability ([3]; first compound 2.53 µM) | relative viability ([3]; first compound 8 µM) | relative viability ([4]; first compound 0.04 µM) | relative viability ([4]; first compound 0.1265 µM) | relative viability ([4]; first compound 0.4 µM) | relative viability ([4]; first compound 1.265 µM) | relative viability ([4]; first compound 4 µM) |
| --- | --- | --- | --- | --- | --- | --- | --- | --- | --- | --- | --- | --- | --- | --- | --- | --- | --- | --- | --- | --- |
| PC-14 | 1.01 | 0.624 | 0.259 | 0.0838 | 0.0619 | 0.991 | 0.974 | 0.985 | 0.918 | 0.566 | 1.06 | 0.854 | 0.757 | 0.939 | 0.83 | 0.975 | 0.79 | 0.366 | 0.143 | 0.144 |
| HCC-15 | 0.362 | 0.279 | 0.191 | 0.105 | 0.106 | 0.73 | 0.702 | 0.718 | 0.699 | 0.604 | 0.752 | 0.687 | 0.696 | 0.713 | 0.695 | 0.558 | 0.249 | 0.16 | 0.0968 | 0.104 |
| NCI-H2347 | 0.312 | 0.32 | 0.284 | 0.265 | 0.293 | 0.897 | 0.929 | 0.771 | 0.721 | 0.673 | 0.433 | 0.356 | 0.49 | 0.463 | 0.346 | 0.908 | 0.731 | 0.57 | 0.424 | 0.41 |
| LOU-NH91 | 0.775 | 0.853 | 0.731 | 0.575 | 0.525 | 0.831 | 0.642 | 0.667 | 0.706 | 0.624 | 0.728 | 0.735 | 0.751 | 0.681 | 0.787 | 1.01 | 1.14 | 0.961 | 0.561 | 0.472 |
| LCLC-103H | 0.697 | 0.651 | 0.513 | 0.331 | 0.307 | – | – | – | – | – | 0.514 | 0.453 | 0.533 | 0.435 | 0.456 | 1.33 | 1.21 | 1.2 | 0.316 | 0.355 |
| EMC-BAC-2 | 0.762 | 0.589 | 0.466 | 0.324 | 0.35 | 1.24 | 1.11 | 1.16 | 1.12 | 1.02 | 0.398 | 0.381 | 0.397 | 0.379 | 0.373 | 0.805 | 0.547 | 0.237 | 0.179 | 0.163 |
| NCI-H2228 | 0.537 | 0.496 | 0.255 | 0.168 | 0.125 | 1.2 | 0.818 | 0.855 | 0.744 | 0.472 | 0.635 | 0.729 | 0.579 | 0.613 | 0.634 | – | 0.419 | 0.355 | 0.163 | 0.18 |

— the supplement of paper PMC10307832
